{"source": "patent US20230277613A1", "about": "“Polysaccharide-Rich Bombax Costatum Flower Extract” (priority 2020, published 2023)", "key": {"IL1α (interleukin 1α)": {"test_system": "IL1α (interleukin 1α)", "assay": "IL1-alpha produced by NHKs under PMA stress (ELISA)", "type": "cell-based, human", "procedure": "(§1) Normal Human Keratinocytes (NHK) were treated for 24 hours at 37° C. with the Bombax costatum Polysaccharide extract according to Example 1 (called BCP extract) at 0.01% and/or 0.05% of dry matter (DM) or by Dexamethasone or Indomethacin at 10^-7M (anti-inflammatory reference molecules). The cells were then treated by adding PMA at 10 μg/ml (Phorbol Myristate Acetate, inflammation-inducing agent) for 16 hours at 37° C. At the end of the treatment, the quantities of IL1α (interleukin 1α), PGE2 (Prostaglandin-E2), IL1β (Interleukin 1β), TNFα (Tumor Necrosis Factor α), IL6 (Interleukin 6) and IL8 (Interleukin 8) secreted were measured by the ELISA technique in the culture supernatants.\n(§2) The significance of the results was assessed by a one-way analysis of variance followed by a Tuckey test."}, "[1]": {"test_system": "TNFα (Tumor Necrosis Factor α)", "assay": "TNF-alpha produced by NHKs under PMA stress (ELISA)", "type": "cell-based, human", "procedure": "as §1, §2"}, "IL1β (Interleukin 1β)": {"test_system": "IL1β (Interleukin 1β)", "assay": "IL1-beta produced by NHKs under PMA stress (ELISA)", "type": "cell-based, human", "procedure": "as §1, §2"}, "PGE2 (Prostaglandin-E2)": {"test_system": "PGE2 (Prostaglandin-E2)", "assay": "PGE2 produced by NHKs under PMA stress (ELISA)", "type": "cell-based, human", "procedure": "as §1, §2"}, "IL8 (Interleukin 8)": {"test_system": "IL8 (Interleukin 8)", "assay": "IL8 produced by NHKs under PMA stress (ELISA)", "type": "cell-based, human", "procedure": "as §1, §2"}, "IL6 (Interleukin 6)": {"test_system": "IL6 (Interleukin 6)", "assay": "IL6 produced by NHKs under PMA stress (ELISA)", "type": "cell-based, human", "procedure": "as §1, §2"}, "[2]": {"test_system": "Staphylococcus epidermidis (ATCC 12228)", "assay": "In vitro sniff test and viability in reconstituted sweat, S. epidermidis", "type": "cell-based", "design": "key to Odor (Sniff) 6 h / Odor (Sniff) 24 h: 1. Absent (comparable to 0.1% chlorhexidine positive control); 2. Moderate; 3. Intense (bacteria-specific olfactory signature)", "settings": "0.1% (BCP or chlorhexidine digluconate)", "procedure": "(§3) Staphylococcus epidermidis (ATCC 12228) and Corynebacterium striatum (ATCC 6940) strains were used. Each of these strains has a typical olfactory signature, the result of the metabolism of sweat components: • S. epidermidis: Valeric and propionic acid; • C. striatum: Sulphanyl alcohols. Each bacterial strain was inoculated into a reconstituted sweat solution in the presence of the BCP extract at 0.1%; 0.6% or 2% or 0.1% chlorhexidine digluconate (positive control). After 6 h and 24 h of incubation: The bacterial viability was evaluated by bacterial count expressed in CFU/ml. A sniff test was carried out to determine the olfactory signature qualitatively and semi-quantitatively (intensity of the smell) immediately after opening the vial, the smell was evaluated and scored by a trained operator: • 1. […] Moderate • 3. Intense (bacteria-specific olfactory signature)"}, "[3]": {"test_system": "Corynebacterium striatum (ATCC 6940)", "assay": "In vitro sniff test and viability in reconstituted sweat, C. striatum", "type": "cell-based", "design": "key to Odor (Sniff) 6 h / Odor (Sniff) 24 h: 1. Absent (comparable to 0.1% chlorhexidine positive control); 2. Moderate; 3. Intense (bacteria-specific olfactory signature)", "settings": "0.1% (BCP or chlorhexidine digluconate)", "procedure": "as §3"}, "hBD2 [4]": {"test_system": "hBD2", "assay": "hBD2 gene expression in keratinocytes (real-time quantitative RT-PCR)", "type": "cell-based, human", "settings": "IL1β 100 ng/ml", "procedure": "(§4) Normal human epidermal keratinocytes were treated for 24 or 48 hours with BCP extract or IL1β at 100 ng/ml (positive reference). At the end of the treatment, the gene expression of hBD2, hBD3 and TLR2 was analyzed by real-time quantitative RT-PCR."}, "TLR2 [5]": {"test_system": "TLR2", "assay": "TLR2 production in keratinocytes (ELISA)", "type": "cell-based, human", "settings": "IL1β 100 ng/ml", "procedure": "(§5) Normal human epidermal keratinocytes were treated for 24 or 48 hours with BCP extract or IL1β at 100 ng/ml (positive reference). Moreover, the quantities of TLR2 and intracellular hBD2 were measured by ELISA."}, "hBD2 [6]": {"test_system": "hBD2", "assay": "Intracellular hBD2 production in keratinocytes (ELISA)", "type": "cell-based, human", "settings": "IL1β 100 ng/ml", "procedure": "as §5"}, "TLR2 [7]": {"test_system": "TLR2", "assay": "TLR2 gene expression in keratinocytes (real-time quantitative RT-PCR)", "type": "cell-based, human", "settings": "IL1β 100 ng/ml", "procedure": "as §4"}, "hBD3": {"test_system": "hBD3", "assay": "hBD3 gene expression in keratinocytes (real-time quantitative RT-PCR)", "type": "cell-based, human", "settings": "IL1β 100 ng/ml", "procedure": "as §4"}, "[8]": {"settings": "Dexamethasone 0.1 μM 24 hours, then PMA 10 μg/ml 16 hours"}, "[9]": {"settings": "Dexamethasone 0.1 μM, vs PMA 10 μg/ml"}}, "note": "Marks after values point to notes of the source that are not given here.", "data": [{"compound": "C[C@@H]1C[C@H]2[C@@H]3CCC4=CC(=O)C=C[C@]4(C)[C@@]3(F)[C@@H](O)C[C@]2(C)[C@@]1(O)C(=O)CO", "note": "[Dexamethasone]", "values": [{"measurement": "IL1α Average", "setting": "IL1α (interleukin 1α); [8]", "value": 230.583, "unit": "pg/mL"}, {"measurement": "IL1α Evolution", "setting": "IL1α (interleukin 1α); [9]", "value": "−38", "unit": "%"}, {"measurement": "TNFα Average", "setting": "[1]; [8]", "value": 16.216, "unit": "pg/mL"}, {"measurement": "TNFα Evolution", "setting": "[1]; [9]", "value": "−52", "unit": "%"}, {"measurement": "IL1β Average", "setting": "IL1β (Interleukin 1β); [8]", "value": 34.410, "unit": "pg/mL"}, {"measurement": "IL1β Evolution", "setting": "IL1β (Interleukin 1β); [9]", "value": "−32", "unit": "%"}, {"measurement": "PGE2 Average", "setting": "PGE2 (Prostaglandin-E2); [8]", "value": 39.000, "unit": "pg/mL"}, {"measurement": "PGE2 Evolution", "setting": "PGE2 (Prostaglandin-E2); [9]", "value": "−94", "unit": "%"}, {"measurement": "IL8 Average", "setting": "IL8 (Interleukin 8); [8]", "value": 4076.675, "unit": "pg/mL"}, {"measurement": "IL8 Evolution", "setting": "IL8 (Interleukin 8); [9]", "value": "−59"}, {"measurement": "IL6 Average", "setting": "IL6 (Interleukin 6); [8]", "value": 2.090, "unit": "pg/mL"}, {"measurement": "IL6 Evolution", "setting": "IL6 (Interleukin 6); [9]", "value": "−70", "unit": "%"}]}, {"compound": "[H]/N=C(\\N/C(=N/[H])NCCCCCCNC(=N)NC(=N)Nc1ccc(Cl)cc1)Nc1ccc(Cl)cc1", "note": "[Chlorhexidine, chlorhexidine digluconate]", "values": [{"measurement": "Viability 24 h", "setting": "[2]; control 8.69 ± 0.09", "value": "0.00 ± 0.00", "unit": "Log10 CFU/ml"}, {"measurement": "Viability 6 h", "setting": "[2]; control 8.91 ± 0.21", "value": "0.00 ± 0.00", "unit": "Log10 CFU/ml"}, {"measurement": "Odor (Sniff) 6 h", "setting": "[2]; control Intense", "value": "Absent"}, {"measurement": "Odor (Sniff) 24 h", "setting": "[2]; control Intense", "value": "Absent"}, {"measurement": "Viability 6 h", "setting": "[3]; control 8.51 ± 0.08", "value": "0.00 ± 0.00", "unit": "Log10 CFU/ml"}, {"measurement": "Viability 24 h", "setting": "[3]; control 8.64 ± 0.19", "value": "0.00 ± 0.00", "unit": "Log10 CFU/ml"}, {"measurement": "Odor (Sniff) 6 h", "setting": "[3]; control Moderate", "value": "Absent"}, {"measurement": "Odor (Sniff) 24 h", "setting": "[3]; control Moderate", "value": "Intense"}]}, {"compound": "IL1β: IL1β at 100 ng/ml (positive reference)", "values": [{"measurement": "hBD2 RQ", "setting": "hBD2 [4]; 24 or 48 hours, control 1.12", "value": 3480.89}, {"measurement": "hBD2 Evolution", "setting": "hBD2 [4]; vs Control", "value": "×3000 ***"}, {"measurement": "TLR2 protein", "setting": "TLR2 [5]; 24 or 48 hours, control 735.9 ± 39.2", "value": "913.7 ± 30.5", "unit": "pg/mL"}, {"measurement": "TLR2 protein Evolution", "setting": "TLR2 [5]; vs Control", "value": "+24% **"}, {"measurement": "hBD2 intracellular protein", "setting": "hBD2 [6]; 24 or 48 hours, control 141.5 ± 15.2", "value": "2162.7 ± 51.1", "unit": "pg/mL"}, {"measurement": "hBD2 protein Evolution", "setting": "hBD2 [6]; vs Control", "value": "+1428% ***"}, {"measurement": "TLR2 RQ", "setting": "TLR2 [7]; 24 or 48 hours, control 1.08", "value": 3.26}, {"measurement": "TLR2 Evolution", "setting": "TLR2 [7]; vs Control", "value": "+201% ***"}, {"measurement": "hBD3 RQ", "setting": "hBD3; 24 or 48 hours, control 1.09", "value": 9.04}, {"measurement": "hBD3 Evolution", "setting": "hBD3; vs Control", "value": "+730% ***"}]}]}
